Earlier results as cited in patent publication US20090324709A1, “LIPOSOMAL FORMULATIONS” (Italfarmaco, S.A., priority 2004, published 2009).
Read-outs that look alike come from different tables or passages of the source. Values belong to the compound of their own block, whether it stands above or below them.

Settings: for release of 5-FU: DSPC liposomes, six hours after preparation; for retention of acyclovir: neutral egg PC:cholesterol 15:1 DRV liposomes; for retention of iododeoxyuridine: egg PC:cholesterol 15:1 DRV liposomes

SMILES: O=c1[nH]cc(F)c(=O)[nH]1 [Example 5-FU, 5-fluorouracil]
release of 5-FU (25° C.): 10%
release of 5-FU (37° C.): 50%
5-FU that escapes (LUV DSPC liposomes, 60 minutes): more than 75%
escape of 5-FU (LUV SPC, SPC:Cholesterol (1:1), SPC:Cholate (84:16), in saturated 5-FU solution, after 50 minutes): more than 50%
release of the drug on eliminating the pH gradient (LUV liposomes actively charged through pH gradient (U.S. Pat. No. 6,083,530)): immediate
release of initially encapsulated 5-FU (SPC:Cholate liposomes in solution without 5-FU, after 5 minutes): 80%
5-FU initially encapsulated still inside the liposomes (multilamellar liposomes of sphingomyelin, cholesterol and dicetyl-phosphate, 40 hours at 25° C.): 20%
5-FU remaining inside (type A liposome soy lecithin:cholesterol hemisuccinate:cholesterol (10:1:4), 28 days at room temperature): 10%
5-FU released (type B liposomes DPPC:cholesterol hemisuccinate:cholesterol (10:1:4), 42 days at room temperature): 40%

SMILES: O=c1[nH]c(=O)n([C@H]2C[C@H](O)[C@@H](CO)O2)cc1F [floxuridine]
retention of floxuridine (MLV SM:CHOL:DCP 4.8:2.8:1, 40 hours at 25° C.): 70%

SMILES: CN(Cc1cnc2nc(N)nc(N)c2n1)c1ccc(C(=O)N[C@@H](CCC(=O)O)C(=O)O)cc1 [methotrexate]
methotrexate retention (EPC liposomes, MLV and REV, 30 days at 4° C.): 70%
methotrexate retention (EPC liposomes, MLV and REV, 30 days at 25° C.): 40%
methotrexate retention (EPC liposomes, MLV and REV, 30 days at 37° C.): < 10%
methotrexate retention (MLV HSPC:CHOL and HSPC:CHOL:DCP, 8 hours at 37° C.): 35%

Second part, the compound after the results:

retention of acyclovir (24 hours at 37° C.): 48%
retention of acyclovir (14 days at 4° C.): 44%
SMILES: Nc1nc2c(ncn2COCCO)c(=O)[nH]1 [acyclovir]

retention of iododeoxyuridine (24 hours at 4° C.): 50%
retention of iododeoxyuridine (one hour at 37° C.): 20%
SMILES: O=c1[nH]c(=O)n([C@H]2C[C@H](O)[C@@H](CO)O2)cc1I [iododeoxyuridine]
